The values below come from patent US12275731B2, “Azaindole inhibitors of wild-type and mutant forms of LRRK2” (DANA-FARBER CANCER INSTITUTE, INC., priority 2018, dated 2025).

Common to all, as to test: KinomeScan profiling
Common to all, as to assay type: binding

One experiment has as its target T1, TAK1 (Homo sapiens, UniProt O43318).
T1 construct: purchased KinomeScan® (panel service)
T1 sequence (O43318 1-606): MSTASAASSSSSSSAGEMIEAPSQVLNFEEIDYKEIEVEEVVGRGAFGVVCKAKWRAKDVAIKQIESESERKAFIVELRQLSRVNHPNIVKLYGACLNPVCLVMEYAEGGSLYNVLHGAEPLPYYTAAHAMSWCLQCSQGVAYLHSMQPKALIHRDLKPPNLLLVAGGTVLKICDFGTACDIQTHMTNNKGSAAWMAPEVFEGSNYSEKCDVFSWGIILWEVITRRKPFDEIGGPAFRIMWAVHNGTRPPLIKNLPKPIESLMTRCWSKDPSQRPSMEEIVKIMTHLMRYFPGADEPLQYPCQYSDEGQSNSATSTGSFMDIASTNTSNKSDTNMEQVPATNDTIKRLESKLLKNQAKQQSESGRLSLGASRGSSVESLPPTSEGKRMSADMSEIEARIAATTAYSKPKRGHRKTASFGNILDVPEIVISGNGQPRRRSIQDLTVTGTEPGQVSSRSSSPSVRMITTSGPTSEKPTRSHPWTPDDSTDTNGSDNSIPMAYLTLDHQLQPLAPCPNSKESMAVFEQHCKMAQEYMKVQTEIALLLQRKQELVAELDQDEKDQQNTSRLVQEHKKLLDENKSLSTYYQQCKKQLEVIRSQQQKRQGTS
Particulars: TAK1, 1 μM; read-out: % control. Summed up:
(§1)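 Selectivity was assessed by binding competition at 1 μM against 468 kinases. Values below 35% of control define an interaction.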

Another experiment concerns the target T2, EPHB2 (Homo sapiens, UniProt P29323).
T2 sequence (P29323 19-1055): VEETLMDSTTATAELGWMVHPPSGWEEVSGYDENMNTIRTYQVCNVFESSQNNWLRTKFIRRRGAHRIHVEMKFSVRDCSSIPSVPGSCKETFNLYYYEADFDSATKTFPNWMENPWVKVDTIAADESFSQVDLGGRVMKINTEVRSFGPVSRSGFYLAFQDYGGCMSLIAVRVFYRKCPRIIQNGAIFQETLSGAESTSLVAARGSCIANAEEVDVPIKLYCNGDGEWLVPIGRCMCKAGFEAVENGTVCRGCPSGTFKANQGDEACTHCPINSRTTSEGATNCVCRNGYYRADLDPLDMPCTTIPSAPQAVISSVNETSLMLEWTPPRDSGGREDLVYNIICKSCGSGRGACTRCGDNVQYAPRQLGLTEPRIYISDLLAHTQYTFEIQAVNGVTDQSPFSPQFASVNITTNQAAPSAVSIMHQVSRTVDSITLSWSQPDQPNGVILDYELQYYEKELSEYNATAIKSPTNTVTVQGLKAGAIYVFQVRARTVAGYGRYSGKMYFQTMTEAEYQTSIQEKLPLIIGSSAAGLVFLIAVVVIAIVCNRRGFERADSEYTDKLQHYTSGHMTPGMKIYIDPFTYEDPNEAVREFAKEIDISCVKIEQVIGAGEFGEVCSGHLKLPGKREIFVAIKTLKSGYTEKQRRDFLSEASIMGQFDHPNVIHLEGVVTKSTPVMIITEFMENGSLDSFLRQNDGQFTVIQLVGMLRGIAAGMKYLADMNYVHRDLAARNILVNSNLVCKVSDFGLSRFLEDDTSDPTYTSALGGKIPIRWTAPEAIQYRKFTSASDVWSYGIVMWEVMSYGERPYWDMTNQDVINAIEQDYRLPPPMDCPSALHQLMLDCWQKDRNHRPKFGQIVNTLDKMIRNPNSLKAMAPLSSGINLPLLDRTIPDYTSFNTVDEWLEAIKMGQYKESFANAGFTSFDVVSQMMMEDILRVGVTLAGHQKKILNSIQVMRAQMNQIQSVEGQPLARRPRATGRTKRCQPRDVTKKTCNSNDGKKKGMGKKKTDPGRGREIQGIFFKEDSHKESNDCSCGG
Particulars: EPHB2, 1 μM; read-out: % control. In a few lines: as §1

The next experiment addresses BUB1 (Homo sapiens, UniProt O43683). Particulars: BUB1, 1 μM; read-out: % control. In a few lines:
as §1

Chain of BUB1 (O43683 whole entry): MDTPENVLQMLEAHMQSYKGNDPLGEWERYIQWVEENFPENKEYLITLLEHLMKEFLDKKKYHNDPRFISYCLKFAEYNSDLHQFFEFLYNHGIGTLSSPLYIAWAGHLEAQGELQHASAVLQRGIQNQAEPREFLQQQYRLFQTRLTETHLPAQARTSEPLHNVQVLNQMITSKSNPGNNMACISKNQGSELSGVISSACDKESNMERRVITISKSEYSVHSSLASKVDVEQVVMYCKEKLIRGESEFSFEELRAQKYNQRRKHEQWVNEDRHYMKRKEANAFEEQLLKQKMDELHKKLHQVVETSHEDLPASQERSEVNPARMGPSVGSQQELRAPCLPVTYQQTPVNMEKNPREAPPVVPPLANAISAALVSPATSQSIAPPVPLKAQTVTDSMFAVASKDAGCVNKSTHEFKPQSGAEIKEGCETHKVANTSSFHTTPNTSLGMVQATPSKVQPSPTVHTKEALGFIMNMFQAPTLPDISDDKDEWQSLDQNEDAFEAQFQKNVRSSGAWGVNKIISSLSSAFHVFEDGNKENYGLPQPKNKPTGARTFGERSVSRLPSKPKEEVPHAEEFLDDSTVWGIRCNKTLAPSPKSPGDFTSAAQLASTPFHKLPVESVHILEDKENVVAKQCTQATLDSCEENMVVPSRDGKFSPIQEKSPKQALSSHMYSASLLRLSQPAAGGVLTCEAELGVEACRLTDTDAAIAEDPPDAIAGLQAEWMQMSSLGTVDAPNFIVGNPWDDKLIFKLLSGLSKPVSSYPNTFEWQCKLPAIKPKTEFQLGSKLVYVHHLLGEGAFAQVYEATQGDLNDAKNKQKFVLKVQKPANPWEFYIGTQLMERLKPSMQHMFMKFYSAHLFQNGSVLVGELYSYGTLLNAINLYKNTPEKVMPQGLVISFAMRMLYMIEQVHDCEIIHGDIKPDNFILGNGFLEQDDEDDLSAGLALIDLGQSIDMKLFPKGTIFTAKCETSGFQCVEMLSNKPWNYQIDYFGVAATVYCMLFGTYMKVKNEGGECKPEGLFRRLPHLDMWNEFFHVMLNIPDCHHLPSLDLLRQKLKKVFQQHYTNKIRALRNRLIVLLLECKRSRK

On to `CNc1c(-c2ccc(C(=O)N3CCC(N4CCOCC4)CC3)cc2)cnc2[nH]cc(Cl)c12` [Compound 96, (4-(3-chloro-4-(methylamino)-1H-pyrrolo[2,3-b]pyridin-5-yl)phenyl)(4-morpholinopiperidin-1-yl)methanone], for which the remaining binding at 1 µM at TAK1 was found to be 6.9%; on EPHB2, 97%; at BUB1, 86%.
Take `O=C(c1ccc(-c2cnc3[nH]cc(Cl)c3c2NC2CCCC2)cc1)N1CCC(N2CCOCC2)CC1` [Compound 101, (4-(3-chloro-4-(cyclopentylamino)-1H-pyrrolo[2,3-b]pyridin-5-yl)phenyl)(4-morpholinopiperidin-1-yl)methanone]: the remaining binding at 1 µM on TAK1 was determined as 6.1%; on EPHB2, 97%; at BUB1 it was 100%.
Regarding `CNc1c(-c2cnn([C@H]3CCN(C(C)=O)C[C@@H]3F)c2)cnc2[nH]cc(Cl)c12` [Compound 77, 1-((3S,4S)-4-(4-(3-chloro-4-(methylamino)-1H-pyrrolo[2,3-b]pyridin-5-yl)-1H-pyrazol-1-yl)-3-fluoropiperidin-1-yl)ethan-1-one], the remaining binding at 1 µM at TAK1 worked out at 21%; on EPHB2, 98%; on BUB1, 80%.
